{"source": "patent US20040235922A1", "about": "“Compositions and methods for inducing adipose tissue cell death” (priority 2003, published 2004)", "key": {"male and female ICR mice": {"tested_on": "male and female ICR mice", "assay": "21 day oral (diet) treatment of mice: selected tissue weights, fat pads, BAT, muscle, organs (Example 1)", "format": "in vivo", "conditions": "21 days; for BAT tissue weight, mean / Biceps tissue weight, mean / Epi/Par tissue weight, mean / Ing tissue weight, mean / Rp tissue weight, mean: male and female mice; for Par weight, mean: females; for Epi weight, mean: males", "method": "(§1) The effects of clenbuterol, a β2-AR agonist, and ractopamine, a β1/β2-AR agonist, on growth, adiposity and adipose tissue apoptosis in male and female mice have been tested by feeding diets containing control, 200 ppm clenbuterol, or 200 or 800 ppm ractopamine. Food intake (FI) was measured daily; body weight (BW) and temperatures (BT) were measured on days 0, 3, 7, 10, 14, 17, and 20. On day 21 mice were sacrificed, body composition was determined using PIXImus densitometry, and muscle and adipose tissues were collected. There were no treatment effects on BT, FI, BW, feed efficiency or body composition. Retroperitoneal (Rp) and epididymal/parametrial (Epi/Par) fat pad masses were reduced in both 800 ppm ractopamine (40±3 and 207±20 mg, respectively) and clenbuterol (35±7 and 211±22 mg) treated mice compared to control (66±8 and 319±30 mg, p<0.05). Brown adipose tissue (BAT) mass was greater (p<0.05) in clenbuterol treated mice compared to other treatments. Adipose tissue apoptosis (% DNA fragmentation) was increased in Epi/Par fat pads in clenbuterol (5.2+1.1%) and 800 ppm ractopamine (4.1±0.8%) treated mice compared to control (1.7+0.4%, p<0.05).\n(§2) Animals: Five week old male (n=20) and female (n=20) ICR mice (Harlan Research Laboratories, Indianapolis, Ind.) were allowed to acclimate for one week prior to the experiment start date. Animals were housed singly in suspended wire cages and were provided ground rodent chow (ProLab® RMH 2500; Purina Mills, St. Louis, Mo.) and water ad libitum. Ambient room temperature was maintained and the light/dark cycle was 0600/1800 hours, respectively. Animals were cared for in accordance with the Guide for the Care and Use of Laboratory Animals (Institute of Laboratory Animal Resources Commission on Life Sciences National Research Council. Guide for the Care and Use of Laboratory Animals. National Academy of Sciences, 1996). Prior to the start of the study, animals were briefly anesthetized with isofluorane and an IPPT-200 transponder (programmable ID and temperature, BMDS, Seaford, Del.) was implanted subcutaneously between the scapulae.\nMaterials: Test articles included clenbuterol (Sigma Chemical Company, St. Louis, Mo., item # C5423) and ractopamine hydrochloride—Paylean® 9 (Elanco Animal Health, Indianapolis, Ind.). Clenbuterol is available as a pure product, and ractopamine is readily available as a type A medicated article. Paylean® 9 contains about 20 g ractopamine hydrochloride per kilogram in a ground corncob base. In order to achieve doses of 200 and 800 ppm it was necessary to add about […] of product per kilogram of diet. Control and clenbuterol diets were prepared with about 80 g of alphacel, which is a diluent used to mimic the effect of the corncob in the ractopamine product. The dose of clenbuterol used in this experiment was similar to those used in previous experiments with mice (Agbenyega E T, and Wareham A C. Effect of clenbuterol on skeletal muscle atrophy in mice induced by the glucocorticoid dexamethasone. Comp Biochem Physiol Comp Physiol 1992;102:141-145, Rothwell N. J., and Stock M J. Modification of body composition by clenbuterol in normal and dystrophic (mdx) mice. Biosci Rep 1985;5:755-760, Hyltander A, Svaninger G, and Lundholm K. The effect of clenbuterol on body composition in spontaneously eating tumour-bearing mice. Biosci Rep 1993;13:325-331, Hayes A, and Williams DA. Long-term clenbuterol administration alters the isometric contractile properties of skeletal muscle from normal and dystrophin-deficient mdx mice. Clin Exp Pharmacol Physiol 1994;21:757-765, Dupont-Versteegden EE. Exercise and clenbuterol as strategies to decrease the progression of muscular dystrophy in mdx mice. J Appl Physiol 1996;80:734-741). […]"}, "[1]": {"assay": "21 day oral (diet) treatment of mice: body weight, food intake, feed efficiency, body temperature, body composition by PIXImus densitometry (Example 1)", "format": "in vivo", "conditions": "21 days, ICR mice", "method": "as §1, §2\n(§3) Materials: Test articles included clenbuterol (Sigma Chemical Company, St. Louis, Mo., item # C5423) and ractopamine hydrochloride—Paylean® 9 (Elanco Animal Health, Indianapolis, Ind.). Clenbuterol is available as a pure product, and ractopamine is readily available as a type A medicated article. Paylean® 9 contains about 20 g ractopamine hydrochloride per kilogram in a ground corncob base. In order to achieve doses of 200 and 800 ppm it was necessary to add about […] of product per kilogram of diet. Control and clenbuterol diets were prepared with about 80 g of alphacel, which is a diluent used to mimic the effect of the corncob in the ractopamine product. The dose of clenbuterol used in this experiment was similar to those used in previous experiments with mice (Agbenyega E T, and Wareham A C. Effect of clenbuterol on skeletal muscle atrophy in mice induced by the glucocorticoid dexamethasone. Comp Biochem Physiol Comp Physiol 1992;102:141-145, Rothwell N. J., and Stock M J. Modification of body composition by clenbuterol in normal and dystrophic (mdx) mice. Biosci Rep 1985;5:755-760, Hyltander A, Svaninger G, and Lundholm K. The effect of clenbuterol on body composition in spontaneously eating tumour-bearing mice. Biosci Rep 1993;13:325-331, Hayes A, and Williams DA. Long-term clenbuterol administration alters the isometric contractile properties of skeletal muscle from normal and dystrophin-deficient mdx mice. Clin Exp Pharmacol Physiol 1994;21:757-765, Dupont-Versteegden EE. Exercise and clenbuterol as strategies to decrease the progression of muscular dystrophy in mdx mice. J Appl Physiol 1996;80:734-741).\nDaily Observations: Food intake was measured daily, while body weight and body temperatures were measured on days 0, 3, 7, 10, 14, 17, and 20 at approximately the same time of day (1300 hours) during the treatment period. […]"}, "[2]": {"tested_on": "Epi/Par fat pads (white adipose tissue)", "assay": "Adipose tissue apoptosis assay, % DNA fragmentation (Example 1)", "format": "in vivo, mice", "conditions": "21 days", "method": "as §2, §3\nDNA Isolation and Apoptosis Assay: Only the Epi and Par fat pads had sufficient tissue for the apoptosis assay. Apoptosis was assayed in two ways: DNA isolated from fat tissue was separated into two fractions: fragmented and genomic DNA. First, the fragmented DNA was run on an agarose gel in order to identify a ladder pattern of internucleosomal DNA degradation that is characteristic of apoptosis. Second, apoptosis was quantified as the ratio of fragmented- to total-DNA, multiplied by 100. Briefly, approximately 50 mg of the Epi or Par white adipose tissue was homogenized in lysis buffer (10 mM Tris-HCL, pH 8.0, 10 mM EDTA, pH 8.0; 0.5% Triton X-100) and centrifuged at 14,000× g for 15 min to separate fragmented DNA from genomic DNA. The supernatant, containing fragmented DNA, was extracted with phenol-chloroform-isoamyl alcohol (25:24:1), and the DNA was precipitated by adding polyacryl carrier (Molecular Research Center, Inc., Cincinnati, Ohio) and ethanol. Genomic (non-fragmented) DNA was extracted from the pellet with DNAzol and the polyacryl carrier. DNA in each fraction was quantified by the PicoGreen method (Molecular Probes, Inc., Eugene, Oreg.) and fluorescence was measured using a SpectroMax Gemini (Molecular Devices).\nStatistical Analysis: Analysis of variance (SAS) was used to determine significance of treatment and gender effects. […]"}, "cardiac myocytes": {"tested_on": "cardiac myocytes", "conditions": "via β1-AR stimulation; cited from earlier work"}, "adipocytes": {"tested_on": "adipocytes", "conditions": "leptin administration; cited from earlier work"}, "[3]": {"conditions": "200 ppm clenbuterol, 800 ppm ractopamine in diet, p<0.05, hydrochloride"}}, "note": "Entries after “also recorded” stand apart in the source; their conditions may differ. Structures can show the parent of a compound that is named as a salt. Marks after values point to notes of the source that are not given here.", "data": [{"compound": "CC(CCc1ccc(O)cc1)NCC(O)c1ccc(O)cc1", "note": "(racemic) [Ractopamine, ractopamine hydrochloride]", "values": [{"measurement": "Rp and Epi/Par fat pad weights compared to control", "setting": "male and female ICR mice; [3]", "result": "reduced; also recorded: decreased"}, {"measurement": "BAT tissue weight, mean", "setting": "male and female ICR mice; 200 ppm in diet", "result": ".096"}, {"measurement": "Biceps tissue weight, mean", "setting": "male and female ICR mice; 200 ppm in diet", "result": ".128"}, {"measurement": "Epi/Par tissue weight, mean", "setting": "male and female ICR mice; 200 ppm in diet", "result": ".295"}, {"measurement": "Ing tissue weight, mean", "setting": "male and female ICR mice; 200 ppm in diet", "result": ".230"}, {"measurement": "Rp tissue weight, mean", "setting": "male and female ICR mice; 200 ppm in diet", "result": ".058"}, {"measurement": "BAT tissue weight, mean", "setting": "male and female ICR mice; 800 ppm in diet", "result": ".095"}, {"measurement": "Biceps tissue weight, mean", "setting": "male and female ICR mice; 800 ppm in diet", "result": ".158"}, {"measurement": "Epi/Par tissue weight, mean", "setting": "male and female ICR mice; 800 ppm in diet", "result": ".207"}, {"measurement": "Ing tissue weight, mean", "setting": "male and female ICR mice; 800 ppm in diet", "result": ".176"}, {"measurement": "Rp tissue weight, mean", "setting": "male and female ICR mice; 800 ppm in diet", "result": ".039"}, {"measurement": "Retroperitoneal (Rp) fat pad mass", "setting": "male and female ICR mice; 800 ppm in diet, mice, control 66±8 mg", "result": "40 ± 3", "unit": "mg"}, {"measurement": "Epididymal/parametrial (Epi/Par) fat pad mass", "setting": "male and female ICR mice; 800 ppm in diet, mice, control 319±30 mg", "result": "207 ± 20", "unit": "mg"}, {"measurement": "Muscle mass / muscle weight, body protein or fat content", "setting": "male and female ICR mice; diet, ICR mice", "result": "no effect"}, {"measurement": "Par weight, mean", "setting": "male and female ICR mice; 200 ppm in diet", "result": ".22^b"}, {"measurement": "Par weight, mean", "setting": "male and female ICR mice; 800 ppm in diet", "result": ".22^b"}, {"measurement": "Epi weight, mean", "setting": "male and female ICR mice; 200 ppm in diet", "result": ".36^a"}, {"measurement": "Epi weight, mean", "setting": "male and female ICR mice; 800 ppm in diet", "result": ".19^b"}, {"measurement": "Cumulative Feed Intake", "setting": "[1]; 200 ppm in diet", "result": 5.92, "unit": "g"}, {"measurement": "Densitometry Bone Mineral Content", "setting": "[1]; 200 ppm in diet", "result": 0.67, "unit": "g"}, {"measurement": "Densitometry Fat", "setting": "[1]; 200 ppm in diet", "result": 3.00, "unit": "g"}, {"measurement": "Densitometry Lean", "setting": "[1]; 200 ppm in diet", "result": 25.63, "unit": "g"}, {"measurement": "Feed Efficiency", "setting": "[1]; 200 ppm in diet", "result": 15.8}, {"measurement": "Final Body Weight", "setting": "[1]; 200 ppm in diet", "result": 31.4, "unit": "g"}, {"measurement": "Weight Gain", "setting": "[1]; 200 ppm in diet", "result": 8.25, "unit": "g"}, {"measurement": "Cumulative Feed Intake", "setting": "[1]; 800 ppm in diet", "result": 6.39, "unit": "g"}, {"measurement": "Densitometry Bone Mineral Content", "setting": "[1]; 800 ppm in diet", "result": 0.67, "unit": "g"}, {"measurement": "Densitometry Fat", "setting": "[1]; 800 ppm in diet", "result": 3.01, "unit": "g"}, {"measurement": "Densitometry Lean", "setting": "[1]; 800 ppm in diet", "result": 27.42, "unit": "g"}, {"measurement": "Feed Efficiency", "setting": "[1]; 800 ppm in diet", "result": 16.6}, {"measurement": "Final Body Weight", "setting": "[1]; 800 ppm in diet", "result": 31.5, "unit": "g"}, {"measurement": "Weight Gain", "setting": "[1]; 800 ppm in diet", "result": 8.32, "unit": "g"}, {"measurement": "Effect on body temperature, food intake, body weight, feed efficiency, body composition", "setting": "[1]; diet, hydrochloride", "result": "not significantly affected; also recorded: Neither clenbuterol nor ractopamine affected"}, {"measurement": "Percent DNA fragmentation (apoptosis) in the Epi/Par fat pad compared to control", "setting": "[2]; [3]", "result": "significant increase in apoptosis"}, {"measurement": "Adipose tissue apoptosis (% DNA fragmentation) in Epi/Par fat pads", "setting": "[2]; 800 ppm in diet, mice, control 1.7±0.4%", "result": "4.1±0.8", "unit": "%"}, {"measurement": "DNA fragmentation in retroperitoneal or inguinal fat pads", "setting": "[2]; diet, mice", "result": "Neither clenbuterol nor ractopamine treatments increased"}]}, {"compound": "NC[C@H](O)c1ccc(O)c(O)c1", "note": "[norepinephrine]", "values": [{"measurement": "Apoptosis of cardiac myocytes", "setting": "cardiac myocytes", "result": "induce apoptosis"}]}, {"compound": "leptin: leptin, administration shown in previous experiments to increase apoptosis of adipocytes", "values": [{"measurement": "Apoptosis of adipocytes", "setting": "adipocytes", "result": "increase apoptosis"}]}]}
